Measured values taken from paper PMC12663734, “Sulfonamine-containing aurone derivatives act as inhibitors of intercellular movement of potato virus Y” (iScience, 2025).
≈ marks a conversion by molar mass, not a printed value.

Assays:
PVY [1] = assay: Anti-PVY protective activity, half-leaf method; conditions: Potato virus Y, in Chenopodium amaranticolor, 120 h, read-out: Protective effect (%)
Protocol: (§1) Owing to its non-host resistance to PVY, Chenopodium amaranticolor develops a hypersensitive response (HR) within 48–72 hours post-inoculation, producing sharply delimited chlorotic or necrotic local lesions on the inoculated leaves. The number of lesions correlates linearly and positively with virus titre, thereby serving as a quantitative indicator of viral virulence and of the inactivating efficacy of test compounds. The PVY viral extract was rubbed onto the surface of Nicotiana tabacum K326 leaves. After the characteristic symptoms of leaf wrinkling and inward curling appeared, the leaves were harvested and stored at -80°C, then purified according to previously reported methods.[50]^,[51]^,[52] Host leaves were ground to a fine powder in liquid nitrogen, followed by homogenization on ice in 0.5 M phosphate buffer. An equal volume of chloroform:n-butanol (1:1, v/v) corresponding to 10% of the total buffer volume was added, and the mixture was further homogenized on ice. After centrifugation at 10,000g for 20 minutes (4°C), the supernatant was collected as the crude PVY extract. Using 4–5-leaf-stage Chenopodium amaranticolor maintained under optimal growth conditions, a bioassay was conducted with two plants per treatment to systematically evaluate the curative, protective, and inactivating efficacy of the target compound against PVY.[53] […] Each compound was evaluated in three replicates, and the average value was calculated.
In contrast to the antiviral therapeutic activity, the leaves were first treated with the drug solution. A 500 μg/mL drug solution was applied to the right side of the leaves, with the left side serving as a control and treated with a 1% Tween 80 solution. After the leaves had dried under natural conditions, they were placed in a greenhouse for 24 hours before inoculation by rubbing with carborundum, following the same procedures as those for curative activity. After treatment, the plants were maintained in a greenhouse, and the number of local lesions on the inoculated leaves was recorded approximately 5 days.

PVY [2] = assay: Anti-PVY curative activity, half-leaf method; conditions: Potato virus Y, in Chenopodium amaranticolor, 120 h, read-out: Curative effect (%)
Protocol: as §1
Chenopodium amaranticolor was selected as the dead spot host. Excess leaves were first trimmed off, and a uniform layer of carborundum was applied to the leaf surface. The leaves were then inoculated by rubbing with a 1200-fold diluted virus solution. After more than an hour, the carborundum on the leaf surface was washed off with running water, and a 500 μg/mL drug solution was prepared. […] The treated plants were cultivated in a greenhouse for observation, and the number of dead spots on the leaves was counted after approximately 5 days.

PVY-GFP = assay: Systemic infection of PVY-GFP in N. benthamiana (GFP fluorescence, RT-qPCR); format: in vivo, potato virus Y; conditions: 500 μg/mL, seven dpi
Protocol: To investigate the effect of compound D13 on PVY system infection, we inoculated Nicotiana benthamiana (N. benthamiana) leaves with Agrobacterium carrying the wild-type PVY-GFP. After 24 h, the infiltrated leaves were treated with dimethyl sulfoxide (DMSO) as the negative control group and 500 μg/mL D13 as the treatment group. […] To further confirm reproducibility, an additional independent biological replicate (Figure S4) was uploaded, and the observed trend is consistent with the primary dataset.
Wild-type or mutant viral plasmids were introduced into agrobacterium tumefaciens strain GV3101. Bacterial cultures were grown overnight at 28°C with shaking at 220 rpm, harvested by centrifugation at 8 minutes when OD600 reached 0.6–0.8, and the supernatant was discarded. […] At 7 dpi, GFP fluorescence in leaves was visualized and photographed under 365 nm excitation using a LUYOR handheld UV lamp (LUYOR-3415RG, Luyor Instrument, Shanghai, China). […]
The samples of N. benthamiana infected with Agrobacterium were taken out from the -80°C freezer, small steel beads were added, and they were ground into fine powder with liquid nitrogen to ensure that the cells were completely broken and the nucleic acid components in the cells were released. […] The primers used is recorded in Supporting Information.

PVY [3] = assay: Anti-PVY inactivating activity, half-leaf method; conditions: for pest or weed control at 500 µg/mL / EC50: Potato virus Y, in Chenopodium amaranticolor; for pest or weed control at 500 µg/mL: 120 h, read-out: Inactivating effect (%), 500 μg/mL; for EC50: read-out: Inactivating effect EC50
Protocol: as §1
Two different dilutions of the virus solution (600-fold and 1200-fold) were prepared, along with a 1000 μg/mL drug solution. The drug solution was mixed with the 600-fold diluted virus solution on ice and incubated for 30 minutes. During the incubation period, the left side of the leaves was treated with a 1200-fold diluted virus solution. After the incubation was completed, the mixed system of drug and virus is inoculated on the right side of the leaf. After waiting for the infection to be completed, the carborundum on the leaf surface was washed off with running water, and the plants were then cultivated in a greenhouse. The number of dead spots on the leaves was counted after approximately 5 days.

PVY CP^P154A = target: T1, PVY CP^P154A (Potato virus Y, UniProt P18247, P2950A); assay: MST binding to mutant PVY CP^P154A
T1 construct: 6xHis tag (within the N-terminal pET-32a(+) fusion leader; the Trx and S-tag parts are inferred from the vector and the ~50 kDa band) (N, cleaved yes); made in house; host or cells: Escherichia coli BL21 (DE3) pLysS
T1 sequence (P18247 2797-3063 P2950A): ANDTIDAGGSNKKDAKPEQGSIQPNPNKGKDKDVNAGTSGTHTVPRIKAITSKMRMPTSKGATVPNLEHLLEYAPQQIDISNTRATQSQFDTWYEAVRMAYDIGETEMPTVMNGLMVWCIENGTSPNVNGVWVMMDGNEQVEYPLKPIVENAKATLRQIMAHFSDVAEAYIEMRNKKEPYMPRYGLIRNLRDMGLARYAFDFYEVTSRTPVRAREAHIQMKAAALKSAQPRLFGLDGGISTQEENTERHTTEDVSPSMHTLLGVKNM

PVY CP = target: T2, PVY CP (Potato virus Y, UniProt P18247); assay: biochemical; format: binding
T2 construct: 6xHis tag (within the N-terminal pET-32a(+) fusion leader; the Trx and S-tag parts are inferred from the vector and the ~50 kDa band) (N, cleaved yes); made in house; host or cells: Escherichia coli BL21 (DE3) pLysS

[4] = host Chenopodium amaranticolor, average of three replicates

T2 sequence (P18247 2797-3063): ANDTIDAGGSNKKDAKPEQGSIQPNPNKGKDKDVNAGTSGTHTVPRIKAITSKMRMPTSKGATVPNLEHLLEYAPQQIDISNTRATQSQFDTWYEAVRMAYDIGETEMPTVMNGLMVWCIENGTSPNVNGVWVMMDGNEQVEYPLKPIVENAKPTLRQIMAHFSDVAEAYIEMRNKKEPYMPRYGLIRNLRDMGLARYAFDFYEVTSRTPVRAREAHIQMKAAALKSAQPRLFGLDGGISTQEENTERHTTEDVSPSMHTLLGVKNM

| Structure (SMILES) | pest or weed control at 500 µg/mL (PVY [1]) [%] | pest or weed control at 500 µg/mL (PVY [2]) [%] | accumulation level of PVY RNA in systemic leaves vs DMSO control (100%) (PVY-GFP; RT-qPCR) [%] | green fluorescence in stems and young top leaves (PVY-GFP; UV illumination) | pest or weed control at 500 µg/mL (PVY [3]; [4]) [%] | EC50 (PVY [3]) [µg/mL] | Kd (PVY CP^P154A) [µM] | Kd (PVY CP) [µM] | Inactivating effect (%) (PVY [3]; 500 μg/mL, host Chenopodium amaranticolor, average of three replicates) |
| --- | --- | --- | --- | --- | --- | --- | --- | --- | --- |
| COc1ccc(/C=C2\Oc3cc(OCC(=O)NS(=O)(=O)c4ccc(Br)cc4)ccc3C2=O)cc1 [D13, (Z)-N-((4-bromophenyl)sulfonyl)-2-((2-(4-methoxybenzylidene)-3-oxo-2,3-dihydrobenzofuran-6-yl)oxy)acetamide] | 47.7 ± 1.4 | 53.2 ± 1.6 | 39.8 | almost unobservable | 60 to 80 | 79.5 ± 3.3 (≈ 146 µM) | 284 | 16 |  |
| NC(=O)c1ncn([C@@H]2O[C@H](CO)[C@@H](O)[C@H]2O)n1 [RBV, ribavirin, reference compound] | 44.2 ± 3.1 | 41.9 ± 2.7 |  |  | 59.3 | 213 ± 15.4 (≈ 873 µM) | 210 ± 59.3 | 50.5 | 59.3 ± 3.8 |
